Some test systems named below: XF 498 CNS; DMS 114 small cell lung; DMS 273 small cell lung; DLD-1 colon; KM20L2 colon; RXF-631 renal; M19-MEL melanoma; LXFL 529 NSCLC; SNB-78 CNS.
Experiment in all cases: NCI-60 cell line screen, 48 h

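These data come from cells grown in 96-well plates and exposed to compound for 48 hours at five concentrations. The concentration for full growth arrest is given as TGI.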

Turning to `CC1=CP(=O)(OC(C)C)C=C(C)C1=C(Cl)Cl` (stereo not drawn), the TGI with XF 498 CNS, in the experiment with DMS 114 small cell lung, with DMS 273 small cell lung, in the experiment on DLD-1 colon, with KM20L2 colon and in the experiment on RXF-631 renal was over 100 µM throughout. Moreover, the TGI with M19-MEL melanoma and in the experiment with LXFL 529 NSCLC was over 100 µM throughout.
For `Cc1cc(N(CCC#N)CCC#N)ccc1/C(Sc1ccccc1)=C(\NC(=O)/C=C/c1ccccc1)C(=O)Sc1ccccc1`, the TGI in the experiment with XF 498 CNS worked out at 30.4 µM; in the experiment with DMS 114 small cell lung, 4.53 µM; in the experiment on DMS 273 small cell lung, 26.2 µM; in the experiment with SNB-78 CNS, 24.6 µM; with DLD-1 colon it was 9.95 µM; in the experiment with KM20L2 colon, 8.09 µM. The TGI in the experiment with RXF-631 renal was over 32.2 µM; in the experiment with M19-MEL melanoma, 14.7 µM; in the experiment with LXFL 529 NSCLC it was 12.6 µM.
In the case of `[N-]=[N+]=NC1(Cc2ccccc2)C(=O)Nc2ccccc2C1=O` (stereo not drawn), the TGI with XF 498 CNS, in the experiment on DMS 114 small cell lung, in the experiment with DMS 273 small cell lung, with SNB-78 CNS, in the experiment with DLD-1 colon and with KM20L2 colon was over 100 µM throughout. Moreover, the TGI in the experiment on M19-MEL melanoma and with LXFL 529 NSCLC was over 100 µM throughout.
As for `CCCN(CCCC(NC(C)=O)C(=O)NCc1ccccc1)C(=O)N(C)N=O` (stereo not drawn), the TGI in the experiment on XF 498 CNS, with DMS 114 small cell lung, in the experiment with DMS 273 small cell lung, with SNB-78 CNS, with DLD-1 colon and in the experiment on KM20L2 colon was over 100 µM throughout. Besides, the TGI in the experiment on M19-MEL melanoma and in the experiment on LXFL 529 NSCLC was over 100 µM each time.
With `CC12CCC(=O)N1[C@@H](c1ccccc1)[C@@H](c1ccccc1)O2` (stereo partly drawn), the TGI in the experiment on XF 498 CNS, with DMS 114 small cell lung, in the experiment with DLD-1 colon, in the experiment on KM20L2 colon, in the experiment with M19-MEL melanoma and with LXFL 529 NSCLC was over 100 µM throughout.
Turning to `Cc1c(N)c(C#N)c2n(C)c3ncccc3n2c1=O`, the TGI in the experiment with XF 498 CNS, in the experiment with DMS 273 small cell lung, with SNB-78 CNS, in the experiment with DLD-1 colon, in the experiment with KM20L2 colon and in the experiment on M19-MEL melanoma was over 100 µM in each case. Also, the TGI in the experiment on LXFL 529 NSCLC is over 100 µM.
As to `C=C(CN(C)C)C(=O)c1ccccc1`, the TGI with XF 498 CNS is 29.9 µM; in the experiment on DMS 114 small cell lung, 11.1 µM; in the experiment on DMS 273 small cell lung, 39.2 µM; in the experiment on SNB-78 CNS, 62.6 µM; with DLD-1 colon, 11.5 µM; in the experiment with KM20L2 colon it was 39.8 µM. Also, the TGI in the experiment on RXF-631 renal came to 48.5 µM; with M19-MEL melanoma, 22.9 µM; in the experiment with LXFL 529 NSCLC, 5.64 µM.
Turning to `CCN(CC)CC(C(C)=O)C(c1ccccc1)c1c(O)c2ccccc2oc1=O` (stereo not drawn), the TGI with XF 498 CNS, in the experiment with DMS 114 small cell lung, in the experiment on DMS 273 small cell lung, with SNB-78 CNS, with DLD-1 colon and with KM20L2 colon was over 100 µM throughout. In addition, the TGI in the experiment with M19-MEL melanoma and in the experiment with LXFL 529 NSCLC was over 100 µM throughout.

The values are drawn from PubChem BioAssay (NCI).
